Laboratory results taken from patent US20130267757A1, “ANTH[…] USE AS RADIOS[…] CANCER TREATMENT” (Sensit Science Ltd., priority 2010, published 2013).
“Also recorded” adds a separate entry of the source.

Columns and labels:
U87 human glioma tumors [1] = experiment: U87 human glioma tumors implanted in nude mice, tumor growth (Example 4A); assay type: in vivo; conditions: 10 mg/kg + 10 Gy radiation
Method: (§1) Mice injected with 5% DMSO vehicle served as the control untreated group. Immediately after the injections, the mice were placed in the dark. For each group of radiosensitizing agent treated mice, half of the treated mice were then treated with a 10 Gy dose of radiation, initiated two hours after the administration of the radiosensitizing agents.
Overall, eight groups of treatment were evaluated as follows:
Tumor growth was evaluated by measuring the tumor's volume twice weekly.

[2] = test system: HT29-human colon carcinoma; experiment: AlamarBlue cell proliferation assay after radiosensitizer and irradiation, HT29; assay type: cell-based; conditions: FIG. 4E, P<0.05
Method: (§2) Human colorectal cancer cell line: HT-29 (ATCC number: HTB-38). All cells were cultured routinely in DMEM supplemented with 10% FCS.
(§3) Three hypericin derivatives were used in the assay, including hypericin tetrasulfonic acid (HyTS); Tetrabromo hypericin (TBrHy); and Hexamethyl hypericin (HxMeHy). In addition, as control, hypericin and/or Photofrin II as well as cells exposed only to radiation, i.e. without a radiosensitizing agent.
(§4) The hypericin, hypericin derivatives and photofrin II were used in doses ranging from 0.1 μM up to 2 μM. All compounds were dissolved in DMSO, and were protected from light.
(§5) In all cases, control and tumor cells were exposed to ionizing radiation (Siemens X-ray device with 250 kV or with LINAC) at 24 h after the incubation with Hyperecin, Photofrin II or Hypericin derivatives indicated below. The total delivered radiation dose was a 10 Gy, provided in a single irradiation session on the second day of culture. The response of the tumor to the radiation treatment was evaluated by determining growth delay using the described cell proliferation assay.
(§6) Cell proliferation assay using AlamarBlue
(§7) Unless indicated otherwise, the tumor cell lines were cultured at a starting density of 1×10^5 cells/mL in DMEM and 10% FCS. […] Absorbance was measured at 570 nm and 600 nm using a micro-titer plate reader. […]

[3] = Treatment toxicity: body weight and overall behaviour (Example 4A); assay type: in vivo, nude mice; conditions: 10 mg/kg; for tolerability of treatment: alone or in combination with radiation, nude mice; for change in mice body weight and mice behaviour: measured twice weekly
Method: as §1
Treatment toxicity was evaluated using two parameters, (i) measuring mice's body weight and (ii) monitoring overall mice behaviour, both parameters were measured twice weekly.

U87 Tumors [4] = conditions: wavelength of 665 nm; with or without radiation
Method: U87 Tumors were resected when tumors reached end-point (1500 mm^3), minced, and digested in 4 mg/ml collagenase III, 2 mg/ml hyaluronidase, and 2 mg/ml collagenase IV in serum free DMEM, for 20 min, at 37° C. Cells were then filtered through a 40 μm sieve, and washed twice with PBS to obtain single U87 cell suspension.
The single U87 tumor cell suspensions were then acquired on Cyan ADP flow cytometer (Beckman Coulter) and analyzed with Summit (Beckman Coulter) software.
The FL8 channel, (wavelength of 655/20 nm) was used to detect differences between positive and negative cells. From each sample, at least 50,000 cells were acquired.
(§8) These studies were aimed at assessing the localization of radiosensitizing agents and were conducted by two complementary techniques; the first in implanted U87 human glioma tumors using UV lamp and the second in extracted U87 tumors using Flow Cytometry techniques.

[5] = test system: MCF-7 human breast carcinoma grown as cancer stem cells spheres; experiment: Example 2B AlamarBlue proliferation, MCF7 cancer stem cells; assay type: cell-based; conditions: for inhibiting proliferation of MCF7 human breast cancer cells grown as stem cells: 0.1-2 μM, single dose 10 Gy, FIG. 6D; for effect in MCF7 cancer stem cells compared with monolayer: FIGS. 6C and 6D
Method: (§9) Linear cell (Lin) HT29 and MCF7 human breast carcinoma, were obtained from the American Type Culture Collection (ATCC).
(§10) Enrichment of the cancer stem cells (CSCs) population was done by incubating linear cells in a DMEM/F-12 (HAM) 1:1 medium supplement with Insulin-Transferin-Soldium Selenite, and growth factors specific for each cell line. Cells considered enriched for CSCs after 10-15 days in CSCs medium.
(§11) Three photosensitizing agents were used, Hypericin (Hy), Tetrabromo hypericin (TBrHy), and hypericin tetrasulfonic acid (HyTS) in the following concentrations: 0.1 μM, 1 μM and 2 μM. Drugs were protected from light for all time. Control cells were treated with 0.1% DMSO (vehicle).
(§12) Linear and CSC were exposed to 3 Gy irradiation daily for four consecutive days or to a single dose of 10 Gy radiation. Radiation was initiated one day after treatment with the hypericin or hypericin derivatives.
(§13) Linear and CSCs were cultured in a 96 plate in triplicates. Each cell line was treated with the three radiosensitizing agents in the indicated doses. In addition culture cells were exposure to radiation. A day before the irradiation, the radiosensitizing agents were added to the culture. Cells were allowed to grow over a period of 5 days using the method of AlamarBlue™ reduction assay. 10% Alamar Blue solution added to each well. Cells viability was measured using Eliza Reader at two different wavelengths: 570 nm and 600 nm, and the appropriate equation was calculated to reflect cell viability.

[6] = brain sections of treated mice, fluorescence 550-650 nm
[7] = test system: MCF-7 human breast carcinoma grown as monolayer; experiment: Example 2B AlamarBlue proliferation, MCF7 linear cells; assay type: cell-based; conditions: 0.1-2 μM; single dose 10 Gy; FIG. 6C
Method: as §9
(§14) Cells were cultured in Dulbecco's Modified Eagle Medium (DMEM), supplemented with 10% fetal calf serum (FCS) and antibiotics.
as §11, §12, §13

[8] = test system: PANC01 human pancreatic adenocarcinoma cells; experiment: PANC01 human pancreatic adenocarcinoma tumors in CB.17 SCID mice, tumor volume (Example 4C); assay type: in vivo; conditions: 10 mg/kg + 10 Gy radiation; for tumor volume of PANC1 pancreatic tumors, agent with radiation: CB.17 SCID mice, FIG. 8B
Method: Mice were injected with the radiosensitizing agent, and immediately after were placed in the dark. Radiation was conducted 2 hours after radiosensitizing administration. […] Tumor volume was measured prior to the treatment and thereafter twice weekly.

U87 Tumors [9] = conditions: during the 2 hours prior to radiation
Method: U87 Tumors were implanted subcutaneously in nude mice and then examined under a UV light lamp and the colour intensity was visualized.
as §8

U87 human glioma tumors [10] = conditions: 10 mg/kg + 10 Gy radiation; CB.17 SCID mice; FIG. 8A
Method: U87 human glioma cells at a concentration of 5×10^6 were implanted into the flank of eight to ten weeks old CB.17 SCID mice (n=4-5 mice per group).
Treatment was initiated when the tumors reached a size of 100-150 mm^3, and included the following treatment groups:
Specifically, mice were injected with the radiosensitizing agent, and immediately placed in the dark. Radiation was initiated two hours after radiosensitizing administration. Mice were kept in the dark for the following 72 hours, in order to minimize the effect of light on the traces of the radiosensitizing agents. Tumor volume was monitored prior to treatment and thereafter twice weekly.

[11] = test system: MCF-7 human breast carcinoma; experiment: AlamarBlue cell proliferation assay after radiosensitizer and irradiation, MCF-7 monolayer; assay type: cell-based; conditions: 1 μM
Method: (§15) Human breast carcinoma: MCF-7 (ATCC number: HTB-22); MDA-MB-231 (ATCC number: HTB-26)
as §2, §3, §4
as §5, with “assay. […]” for “assay.”
as §7

[12] = test system: MD-MB-231-human breast carcinoma; experiment: AlamarBlue cell proliferation assay after radiosensitizer and irradiation, MDA-MB-231; assay type: cell-based; conditions: 1 μM; FIG. 4C, P<0.05
Method: as §15, §2, §3, §4
as §5, with “assay. […]” for “assay.”
as §7

[13] = test system: HT29-colon cancer grown in monolayer; experiment: Example 2B AlamarBlue proliferation, HT29 linear cells; assay type: cell-based, human; conditions: 0.1-2 μM; single dose 10 Gy; FIG. 6A
Method: as §9, §14, §11, §12, §13

[14] = test system: HT29-colon cancer grown as cancer stem cells spheres; experiment: Example 2B AlamarBlue proliferation, HT29 cancer stem cells; assay type: cell-based, human; conditions: 0.1-2 μM; single dose 10 Gy; FIG. 6B; compared with monolayer
Method: as §9, §10, §11, §12
as §13, with “Cells were allowed to grow over a period of 5 days using the method of AlamarBlue™ reduction assay. 10% Alamar Blue solution added to each well.” left out

[15] = test system: C6 Rat-Glioma grown in monolayer; experiment: AlamarBlue cell proliferation assay after radiosensitizer and irradiation, C6 monolayer; assay type: cell-based; conditions: 0.1 μM
Method: The following cell lines were originally obtained from the American Type Culture collection (ATTC):
(§16) Rat glioma cell line: C6 (ATCC number: CCL107)
as §2, §3, §4
as §5, with “The total delivered radiation dose was a 10 Gy, provided in a single irradiation session on the second day of culture.” left out
as §6, §7

Dayo-human Glioma tumor = experiment: AlamarBlue cell proliferation assay after radiosensitizer and irradiation, Dayo; assay type: cell-based; conditions: 0.1 μM; FIG. 4B, P<0.01
Method: Human glioma cell lines: Daoy (ATCC number: HTB-186) and
as §2, §3, §4, §5, §6, §7

[16] = test system: C6 Rat-Glioma grown as cancer stem cells spheres; experiment: AlamarBlue cell proliferation assay after radiosensitizer and irradiation, C6 cancer stem cell spheres; assay type: cell-based; conditions: 0.1 μM; irradiation 10 Gy; 5 days post irradiation; FIG. 3B, P<0.049
Method: as §16
To obtain tumor stem cells, cells were cultured in stem cell conditioned media. Briefly, breast and glioma cancer cells were cultured in serum-free DMEM media containing […] bovine insulin, 100 μg/ml human transferrin, 100 μg/ml BSA, 60 ng/ml progesterone, 16 μg/ml putrescine, 40 μg/ml sodium selenite, 63 μg/ml N-acetylcysteine, 5 μM forskolin, 50 units/ml penicillin, and 50 μg/ml streptomycin, 10 ng/ml bFGF, and 10 ng/ml PDGF. In all experiments, cells were maintained in 100 mm or 96 well plate culture dishes at 37° C. in a humidified […] and were protected from light.
Three hypericin derivatives were used in the assay, including hypericin tetrasulfonic acid (HyTS); Tetrabromo hypericin (TBrHy); and Hexamethyl hypericin (HxMeHy). […]
as §5, with “The total delivered radiation dose was a 10 Gy, provided in a single irradiation session on the second day of culture.” left out, “assay. […]” for “assay.”
as §7

SMILES | tolerability of treatment [3] | change in mice body weight and mice behaviour [3] | fluorescent signal of tumor cells by flow cytometry (U87 Tumors [4]) | inhibiting proliferation of MCF7 human breast cancer cells grown as stem cells [5] | effect in MCF7 cancer stem cells compared with monolayer [5] | BBB penetration [6] | inhibiting proliferation of MCF7 human breast cancer cells grown as monolayer [7] | tumor volume of PANC1 pancreatic tumors, agent with radiation [8] | colour of tumors under UV light (U87 Tumors [9]) | other results
Cc1c(Br)c(O)c2c(=O)c3c(O)c(Br)c(O)c4c5c(O)c(Br)c(O)c6c(=O)c7c(O)c(Br)c(C)c8c1c2c(c34)c(c78)c65 [TBrHy, Tetrabromo hypericin] | well tolerated | no significant change | fluorescent signal was detected | effective in inhibiting the proliferation | more pronounced | penetrated the BBB | effective in inhibiting the proliferation | most potent radiosensitizing agent; also recorded: enhanced anti-tumor activity | colored in red | tumor growth of U87 tumors, agent combined with radiotherapy (U87 human glioma tumors [1]; nude mice, FIG. 7): most effective radiosensitizing agent; also recorded: better anti-tumor activity; tumor removal in one mouse (U87 human glioma tumors [1]; one mouse, 4 days after treatment): completely removed; radiosensitizing effect on colon cancer HT29 (proliferation on day 5) ([2]; 0.1 μM): effective radiosensitizing agents
Cc1c(S(=O)(=O)O)c(O)c2c(=O)c3c(O)c(S(=O)(=O)O)c(O)c4c5c(O)c(S(=O)(=O)O)c(O)c6c(=O)c7c(O)c(S(=O)(=O)O)c(C)c8c1c2c(c34)c(c78)c65 [HyTS, hypericin tetrasulfonic acid] | well tolerated | no significant change | fluorescent signal was detected | effective in inhibiting the proliferation | more pronounced | does not penetrate the BBB | effective in inhibiting the proliferation | anti-tumor activity | colored in red | tumor volume of U87 tumors, agent with radiation (U87 human glioma tumors [10]): anti-tumor activity; radiosensitizing effect on breast cancer MCF-7 (proliferation on day 5) ([11]; FIG. 4D, P<0.01): statistically significantly effective; proliferation of MCF-7 breast cancer cells grown as monolayer (AlamarBlue, fold increase) ([11]; irradiation 10 Gy, 5 days post radiation, FIG. 3C, P<0.03): statistically inhibited the proliferation; radiosensitizing effect on breast cancer MD-MB-231 (proliferation on day 5) [12]: statistically significantly effective; radiosensitizing effect on colon cancer HT29 (proliferation on day 5) ([2]; 1 μM): effective radiosensitizing agents; radiosensitizing HT-29 colon cancer cells (monolayer) [13]: effective in radiosensitizing; anti-tumor activity in PANC1 pancreatic tumors compared with U87 [8]: somewhat better activity; sensitivity of HT-29 colon cancer stem cells to treatment [14]: more sensitive
COc1cc(C)c2c3c(C)cc(OC)c4c(=O)c5c(OC)cc(OC)c6c7c(OC)cc(OC)c8c(=O)c1c2c(c87)c(c43)c56 [HxMeHy, Hexamethyl hypericin] | – | – | – | – | – | – | – | – | – | radiosensitizing effect on C6 brain cancer (proliferation on day 5) ([15]; FIG. 4A): effective radiosensitizing agent; proliferation of C6 glioma cells in monolayer (AlamarBlue, fold increase) ([15]; irradiation 10 Gy, 5 days post irradiation, FIG. 3A, P<0.05): statistically inhibited the proliferation; radiosensitizing effect on Dayo tumor (proliferation on day 5) (Dayo-human Glioma tumor): effective radiosensitizing agent; proliferation of C6 glioma cells grown as CSCs (AlamarBlue, fold increase) [16]: statistically inhibited the proliferation
